Data reported in patent US9783546B2, “Compounds” (GlaxoSmithKline Intellectual Property Development Limited, priority 2014, dated 2017).

Columns and labels:
[1] = system: proinflammatory (M1) and anti-inflammatory (M2) markers in macrophages; assay: Ex vivo analysis of M1 and M2 markers in macrophages of EAE rats by realtime PCR; design: species or system rat; settings: splenic macrophages at day 13 post MBP-immunization and CNS infiltrating macrophages
Procedure: Ex vivo analysis of proinflammatory (M1) and anti-inflammatory (M2) markers in control and compound treated EAE rats. Splenic macrophages were harvested at day 13 post MBP-immunization and assayed for expression of a variety of markers by realtime PCR. CNS infiltrating cells were harvested and macrophages were analyzed for expression of M1 and M2 markers by realtime PCR.

[2] = system: experimental autoimmune encephalomyelitis (EAE) rats; assay: Rat experimental autoimmune encephalomyelitis (EAE) model, preventive treatment; type: in vivo; settings: rats immunized with MBP
Procedure: A further study was carried out to study the impact of Lp-PLA2 inhibitors on modulating M1/M2 imbalance. In this study, rats were induced to develop experimental autoimmune encephalomyelitis (EAE) by immunization with myelin basic protein (MBP) antigen and treated with a known Lp-PLA2 inhibitor: 5-(9-Methoxy-4-oxo-6,7-dihydro-4H-pyrimido[6,1-a]isoquinolin-2-yl)oxy)-2-(3-(trifluoromethyl)phenoxy)benzonitrile (See PCT application no. PCT/CN2011/001597). In this preventive treatment model, the compound was administered at day 0 (day of immunization) and continued to administer until day 22. The study lasted for 25 days. Rats were subsequently monitored for symptoms of EAE. Rats were immunized with MBP to develop EAE and symptoms were monitored daily. Plasma Lp-PLA2 activity, OxLDL, and LysoPC concentration were determined at different time points through the course of EAE.

[3] = molecular target: T1, recombinant human Lp-PLA2 (Homo sapiens, UniProt Q13093); assay: Recombinant human Lp-PLA2 assay (rhLp-PLA2), PED6 assay; type: biochemical; settings: PED6 substrate, 30 minutes preincubation; read-out: rhLp-PLA2 (pIC50) (converted)
T1 sequence (Q13093 22-441): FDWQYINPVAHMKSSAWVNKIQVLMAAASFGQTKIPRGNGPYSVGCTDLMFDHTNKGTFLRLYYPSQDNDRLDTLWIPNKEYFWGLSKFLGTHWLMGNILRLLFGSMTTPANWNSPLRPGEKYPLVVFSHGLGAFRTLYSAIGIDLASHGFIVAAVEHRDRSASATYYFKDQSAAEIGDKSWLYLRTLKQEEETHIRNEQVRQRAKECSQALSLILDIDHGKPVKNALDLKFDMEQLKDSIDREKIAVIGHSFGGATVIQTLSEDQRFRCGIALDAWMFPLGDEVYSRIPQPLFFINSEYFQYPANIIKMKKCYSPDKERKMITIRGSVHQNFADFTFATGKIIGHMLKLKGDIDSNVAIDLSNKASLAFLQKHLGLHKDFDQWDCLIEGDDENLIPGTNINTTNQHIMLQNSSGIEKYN
Text: (1) Recombinant human Lp-PLA2 assays (rhLp-PLA2)-PED6 assay
N-((6-(2,4-dinitrophenyl)amino)-hexanoyl)-2-(4,4-difluoro-5,7-dimethyl-4-bora-3a,4a-diaza-s-indacene-3-pentanoyl)-1-hexadecanoyl-sn-glycero-3-phosphoethanolamine, triethylammonium salt (PED6) is a commercially available fluorescently-labeled phospholipid, which is commercially available from Invitrogene and Molecular Probes. There is a quenching para-nitro phenyl (PNP) group in the sn3 position and a Bodipy fluorescein (FL) group in the sn2 position. Upon cleavage with Lp-PLA2, the Bodipy FL group is liberated and then may result in an increase in fluorescence. Inhibitors of Lp-PLA2 therefore prevent this cleavage and no fluorescent increase is observed.
The PED6 assay was run as an unquenched 10 μL assay. The source plate containing the compounds to be tested was prepared by making 1:3 (by volume) serial dilution of the compounds within DMSO on 384-well microplate. Then, 0.01 μL of the compounds on compound source plate were transferred into 384 well Greiner 784076 (black) plates using ECHO liquid dispenser. […] The plates were read for fluorescence intensity at ex: 480/em: 540 using ViewLux microplate imager for Envision spectrofluroimeters. pIC50 data, curve and QC analysis was conducted by using XL fit module in Excel. […]

Lp-PLA2 in human plasma = molecular target: T2, Lp-PLA2 in human plasma (Homo sapiens, UniProt Q13093); assay: Lp-PLA2 Human Plasma assay, Thio-PAF assay; type: biochemical; settings: pooled human plasma, 2-thio-PAF substrate; read-out: pIC50 value in the Lp-PLA2 human plasma assays (converted)
T2 construct: from tissue; host or cells: pooled human plasma
T2 sequence (Q13093 22-441): T1 sequence (Q13093 22-441)
Text: (3) Lipoprotein-associated phospholipase A2 (Lp-PLA2) Human Plasma assay-Thio-PAF assay
The human plasma assay utilizes a thioester analog of PAF (phosphatidylcholine), where hydrolysis yields to the formation of a phospholipid containing a free thiol group. The amount of thiol is quantitated continuously by reacting with CPM (7-diethylamino-3-(4′-maleimidylphenyl)-4-methylcoumarin), a maleimide which increases in fluoresence after Michael addition of thiols. This assay may detect the activity of Lp-PLA2 in human plasma, as determined by specific inhibition by Lp-PLA2 inhibitors.
The thio-PAF assay was run as a quenched 15 μL assay. Compounds source plate was prepared by making 1:3 (by volume) serial dilution of the compounds into pure DMSO on 384-well microplate. […] of compounds on compound source plate were transferred to 384 well Greiner 784076 (black) low-volume plates by ECHO liquid dispenser. 8 μL pooled human plasma, which was previously aliquoted and frozen, was added. Plates were centrifuged for 10 sec at 500 rpm. […] Plates were read at ex: 380/em: 485 using Envision microplate reader. […]

[4] = compound administered day 0 until day 22, plasma

| IC50 [3] | IC50 (Lp-PLA2 in human plasma) | SMILES | M1 markers expression [1] | M2 markers expression [1] | clinical disease (EAE) ([2]; compound administered day 0 until day 22) | Lp-PLA2 activity in rat EAE plasma [2, 4] | LysoPC levels in rat EAE plasma [2, 4] |
| --- | --- | --- | --- | --- | --- | --- | --- |
|  |  | COc1ccc2c(c1)CCn1c-2cc(Oc2ccc(Oc3cccc(C(F)(F)F)c3)c(C#N)c2)nc1=O [5-(9-Methoxy-4-oxo-6,7-dihydro-4H-pyrimido[6,1-a]isoquinolin-2-yl)oxy)-2-(3-(trifluoromethyl)phenoxy)benzonitrile] | decrease in M1 markers | increase in M2 markers | reduction in clinical disease | decreased Lp-PLA2 activity | decreased |
| 0.158 nM | 7.94 nM | O=c1nc(OCc2cc(F)c(Oc3ccnc(C(F)(F)F)c3)c(F)c2)cc2n1C[C@H]1CCCN21 [Example 1, (R)-3-((3,5-difluoro-4-((2-(trifluoromethyl)pyridin-4-yl)oxy)benzyl)oxy)-7,8,8a, 9-tetra hydropyrrolo[1′,2′;3,4]imidazo[1,2-c]pyrimidin-1(6H)-one] |  |  |  |  |  |
| 0.316 nM | 20 nM | O=c1nc(OCc2cc(F)c(Oc3ccnc(C(F)(F)F)c3)c(F)c2)cc2n1C[C@@H]1CCCN21 [Example 2, (S)-3-((3,5-difluoro-4-((2-(trifluoromethyl)pyridin-4-yl)oxy)benzyl)oxy)-7,8,8a, 9-tetra hydropyrrolo[1′,2′:3,4]imidazo[1,2-c]pyrimidin-1(6H)-one] |  |  |  |  |  |
